For one test, the system named is human stem cells. The test is described as follows: Differentiation of human stem cells into sensory neuron subtypes in E8/E6 medium (TrkA, TrkB, TrkC). The class given is cell-based. To be noted: CHIR99021 3 μM, 1.5 μM and 0.75 μM from day 2 through day 12, FIG. 3B. As for the experimental part: An E8/E6 medium was used to differentiate human stem cells into sensory neurons, including nociceptors, proprioceptors, and mechanoceptors. […] On day 4, day 8, day 12, and day 16, the cells were measured for CD49d expression. […] On day 16 and day 20, cells were stained for BRN3A, TUJ1, and DAPI. […] TrkA is a nociceptor marker, TrkB is a mechanoreceptor marker, and TrkC is a proprioceptor marker.

In the next test the test system is rodent GSK3β homologs. To be noted: cited from earlier work.

Consider `Cc1c[nH]c(-c2cnc(NCCNc3ccc(C#N)cn3)nc2-c2ccc(Cl)cc2Cl)n1` [CHIR99021, 6-(2-(4-(2,4-dichlorophenyl)-5-(4-methyl-1H-imidazol-2-yl)pyrimidin-2-ylamino)ethylamino)nicotinonitrile], for which the “generation of the three sensory neuron subtypes (nociceptors, proprioceptors, mechanoreceptors)” value in the test with human stem cells was “generated at similar efficiencies”. The “IC50 values against rodent GSK3β homologs” value with rodent GSK3β homologs is “nanomolar”.

The values are drawn from US11542470B2, “Methods of differentiating stem cell-derived proprioceptors” (MEMORIAL SLOAN-KETTERING CANCER CENTER, priority 2016, dated 2023).
